Assay results published in patent US6642392B1 (priority 1997, dated 2003).
Read-outs that look alike come from different tables or passages of the source.

Experiments:
Type in all cases: in vivo
[1] = system: Eiysiphe graminis f. sp. tritici; assay: Test A: wheat powdery mildew, preventive spray on wheat seedlings; details: for Test A disease control rating: wheat powdery mildew
Description: (§1) The resulting test suspensions were then used in the following tests. […]
The test suspension was sprayed to the point of run-off on wheat seedlings. The following day the seedlings were inoculated with a spore dust of Eiysiphe graminis f. sp. tritici, (the causal agent of wheat powdery mildew) and incubated in a growth chamber at 20° C. for 7 days, after which disease ratings were made.
(§2) Results for Tests A-E are given in Table A. In the table, a rating of 100 indicates 100% disease control and a rating of 0 indicates no disease control (relative to the controls). A dash (-) indicates no test results. ND indicates disease control not determined due to phytotoxicity.

Phytophthora infestans = details: for Test D disease control rating: tomato late blight
Puccinia recondita = assay: Test B: wheat leaf rust, preventive spray on wheat seedlings; details: for Test B disease control rating: wheat leaf rust
Description: as §1
(§3) The test suspension was sprayed to the point of run-off on wheat seedlings. The following day the seedlings were inoculated with a spore suspension of Puccinia recondita (the causal agent of wheat leaf rust) and incubated in a saturated atmosphere at 20° C. for 24 h, and then moved to a growth chamber at 20° C. for 6 days, after which disease ratings were made.
as §2

Pyricularia oryzae = details: for Test C disease control rating: rice blast
Botrytis cinerea = assay: Test E: gray mold, preventive spray on cucumber seedlings; details: for Test E disease control rating: gray mold on cucumber
Description: The resulting test suspensions were then used in the following tests. Spraying these 200 ppm test suspensions to the point of run-off on the test plants is the equivalent of a rate of 500 g/ha.
as §3, with “cucumber” for “wheat”, “Botrytis cinerea” for “Puccinia recondita”, “gray mold on many crops)” for “wheat leaf rust)”, “48” for “24”, “and” for “and then”, “5” for “6”
as §2

[2] = 100 = 100% disease control, 0 = no control relative to controls, unmarked entries (standard test concentration)
[3] = 100 = 100% disease control, 0 = no control, unmarked entries (standard test concentration)
[4] = wheat seedlings sprayed to run-off, inoculated the following day, rating relative to controls, unmarked compounds (standard test rate)

| SMILES | Test A disease control rating [1, 2] | Test D disease control rating (Phytophthora infestans; [3]) | Test B disease control rating (Puccinia recondita; [3]) | Test C disease control rating (Pyricularia oryzae; [3]) | Test E disease control rating (Botrytis cinerea; [3]) | also measured |
| --- | --- | --- | --- | --- | --- | --- |
| CC(COc1ccccc1)NC(=O)C(C#N)C(C)(C)C (mixture of isomers) [1a] | 60% | 0% | 0% | 53% | 0% |  |
| CCC1(C(=O)NCC=Cc2cccc(F)c2)C(C)C1(Cl)Cl (centres unmarked) [compound 264] |  |  |  |  |  | Test A disease control rating (100 = 100% disease control, 0 = no disease control) [1, 4]: 0%; Test D disease control rating (100 = 100% disease control, 0 = no disease control) (Phytophthora infestans; tomato seedlings sprayed to run-off, inoculated the following day, rating relative to controls, unmarked compounds (standard test rate)): 54%; Test B disease control rating (100 = 100% disease control, 0 = no disease control) (Puccinia recondita; [4]): 0%; Test C disease control rating (100 = 100% disease control, 0 = no disease control) (Pyricularia oryzae; rice seedlings sprayed to run-off, inoculated the following day, rating relative to controls, unmarked compounds (standard test rate)): 90%; Test E disease control rating (100 = 100% disease control, 0 = no disease control) (Botrytis cinerea; cucumber seedlings sprayed to run-off, inoculated the following day, rating relative to controls, unmarked compounds (standard test rate)): 94% |
| C[C@H](COc1c(F)cc(F)cc1F)NC(=O)C(C#N)C(C)(C)C (single isomer, unassigned) [189b] | 0% | 35% | 0% | 100% | 0% |  |
| C[C@H](COc1cccc(Br)c1)NC(=O)C(C#N)C(C)(C)C (single isomer, unassigned) [9b] | 62% | 28% | 68% | 99% | 0% |  |
| C[C@H](COc1c(Cl)ccc(Cl)c1Cl)NC(=O)C(C#N)C(C)(C)C (single isomer, unassigned) [171b] | 91% | 0% | 0% | 53% | 58% |  |
| CC(COc1cc(Br)ccc1C#N)NC(=O)C(C#N)C(C)(C)C (mixture of isomers) [compound 44] | 0% | 89% | 0% | 94% | 0% |  |
| CC(COc1cccc(F)c1)NC(=O)C(C#N)C(C)(C)C (single isomer, unassigned) [3b] | 0% | 32% | 0% | 86% | 0% |  |
| C[C@H](COc1ccccc1C#N)NC(=O)C(C#N)C(C)(C)C (single isomer, unassigned) [13b] | 0% | 4% | 0% | 86% | 83% |  |
| CCC1(C(=O)NCC=Cc2ccccc2F)C(C)C1(Cl)Cl (centres unmarked) [compound 157] |  |  |  |  |  | Test A disease control rating ([1]; tested at 40 ppm): 0%; Test D disease control rating (Phytophthora infestans; tested at 40 ppm): 0%; Test B disease control rating (Puccinia recondita; tested at 40 ppm): 0%; Test C disease control rating (Pyricularia oryzae; tested at 40 ppm): 97%; Test E disease control rating (Botrytis cinerea; tested at 40 ppm): 0% |
| CC(COc1ccc(C(C)(C)C)cc1)NC(=O)C(C#N)C(C)(C)C (mixture of isomers) [compound 24] | 62% | 66% | 0% | 53% | 94% |  |
| C[C@H](COc1ccc(Cl)cc1Cl)NC(=O)C(C#N)C(C)(C)C (single isomer, unassigned) [32b] | 0% | 23% | 27% | 94% | 0% |  |
| CC(C)(C)C(C#N)C(=O)NCCCn1c(C#N)cc(Cl)c1Cl (racemic) [compound 55] | 0% | 0% | 0% | 85% | 0% |  |
| CC(COc1ccccc1Cl)NC(=O)C(C#N)C(C)C(C)(C)C (mixture of isomers) [compound 58] |  |  |  |  |  | Test A disease control rating ([1]; tested at 40 ppm): 57%; Test D disease control rating (Phytophthora infestans; tested at 40 ppm): 0%; Test B disease control rating (Puccinia recondita; tested at 40 ppm): 0%; Test C disease control rating (Pyricularia oryzae; tested at 40 ppm): 52%; Test E disease control rating (Botrytis cinerea; tested at 40 ppm): 0% |
